BindingDB's records for patent US20230382889 (Volastra Therapeutics, 2023)

Biological target: T1, Kinesin-like protein KIF18A (Homo sapiens, UniProt Q8NI77)
T1 sequence (Q8NI77 whole entry): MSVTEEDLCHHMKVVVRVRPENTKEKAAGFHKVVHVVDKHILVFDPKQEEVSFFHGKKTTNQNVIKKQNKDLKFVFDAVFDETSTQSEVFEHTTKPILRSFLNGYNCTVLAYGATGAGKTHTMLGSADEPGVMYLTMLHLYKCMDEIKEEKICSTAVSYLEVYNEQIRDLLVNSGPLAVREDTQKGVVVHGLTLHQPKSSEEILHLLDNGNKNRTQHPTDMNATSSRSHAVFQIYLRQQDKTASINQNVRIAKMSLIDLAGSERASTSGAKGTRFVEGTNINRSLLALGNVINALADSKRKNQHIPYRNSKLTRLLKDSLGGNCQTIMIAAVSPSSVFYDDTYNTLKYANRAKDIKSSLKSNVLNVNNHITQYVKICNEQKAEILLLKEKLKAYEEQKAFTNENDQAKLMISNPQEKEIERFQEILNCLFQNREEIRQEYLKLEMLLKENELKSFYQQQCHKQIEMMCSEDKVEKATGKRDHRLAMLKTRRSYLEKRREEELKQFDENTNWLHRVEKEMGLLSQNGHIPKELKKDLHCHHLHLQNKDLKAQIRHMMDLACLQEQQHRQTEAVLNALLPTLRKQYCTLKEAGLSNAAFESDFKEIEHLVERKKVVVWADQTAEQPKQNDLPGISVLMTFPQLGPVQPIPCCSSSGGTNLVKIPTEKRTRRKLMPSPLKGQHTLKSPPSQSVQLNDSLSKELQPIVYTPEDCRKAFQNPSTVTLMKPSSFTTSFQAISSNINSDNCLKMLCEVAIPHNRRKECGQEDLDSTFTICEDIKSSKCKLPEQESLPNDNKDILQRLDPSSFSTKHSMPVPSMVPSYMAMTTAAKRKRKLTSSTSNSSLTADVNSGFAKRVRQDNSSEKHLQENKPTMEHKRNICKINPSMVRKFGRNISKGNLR
Experiment: Inhibition of KIF18A Microtubule-Dependent ATPase Activity
Procedure: IC50 values were calculated from concentration vs. % Inhibition data via a four-parameter variable slope model.

IC50: 77 nM
Compound: O=S(=O)(CCO)Nc1cc(N2CCC3(CC2)CC3)c(-c2cn(-c3ccc(F)c(S(=O)(=O)N4CC(F)(F)C4)c3)nn2)cn1 [US20230382889, Compound 112]
